One may read the EC50 as the concentration needed to bring the measured effect to its halfway point.

The test system of one assay is SARS-CoV-2 strain USA-WA1/2020. Nature of the assay: microbe, parasite or virus in culture. In kind it is cell-based. Particulars: Severe acute respiratory syndrome coronavirus 2, HeLa-ACE2, 24 h, HeLa-ACE2 cells, SARS-CoV-2 infection, 24 h; read-out: EC50, uM (Hela).
For the compound `O=C1NCC[C@H]1C[C@H](NC(=O)[C@@H]1CC2(CC2)CN1C(=O)C(O)(c1ccccc1)C(F)(F)F)C(=O)COC(F)(F)F` (stereo partly drawn) [Compound 681, (6S)-N-((S)-3-oxo-1-((S)-2-oxopyrrolidin-3-yl)-4-(trifluoromethoxy)butan-2-yl)-5-(3,3,3-trifluoro-2-hydroxy-2-phenylpropanoyl)-5-azaspiro[2.4]heptane-6-carboxamide], the concentration for a half-maximal effect (EC50) was 0.05 to 0.2 µM.

As to `O=C1NCC[C@H]1C[C@H](NC(=O)[C@@H]1CC2(CC2)CN1C(=O)C1CCOCC1)C(=O)COC(F)(F)F` [Compound 682, (S)-N-((S)-3-oxo-1-((S)-2-oxopyrrolidin-3-yl)-4-(trifluoromethoxy)butan-2-yl)-5-(tetrahydro-2H-pyran-4-carbonyl)-5-azaspiro[2.4]heptane-6-carboxamide], the EC50 was 0.2 to 0.5 µM.

As for `O=C1NCC[C@H]1C[C@H](NC(=O)[C@@H]1CC2(CC2)CN1C(=O)CCC(F)F)C(=O)COC(F)(F)F` [Compound 683, (S)-5-(4,4-difluorobutanoyl)-N-((S)-3-oxo-1-((S)-2-oxopyrrolidin-3-yl)-4-(trifluoromethoxy)butan-2-yl)-5-azaspiro[2.4]heptane-6-carboxamide], the EC50 was 0.05 to 0.2 µM.

Take `O=C1NCC[C@H]1C[C@H](NC(=O)[C@@H]1CC2(CC2)CN1C(=O)CC(F)(F)C(F)F)C(=O)COC(F)(F)F` [Compound 684, (S)-N-((S)-3-oxo-1-((S)-2-oxopyrrolidin-3-yl)-4-(trifluoromethoxy)butan-2-yl)-5-(3,3,4,4-tetrafluorobutanoyl)-5-azaspiro[2.4]heptane-6-carboxamide]: the EC50 lay in the range of 0.05 to 0.2 µM.

For the compound `O=C1NCC[C@H]1C[C@H](NC(=O)[C@@H]1CC2(CC2)CN1C(=O)c1ccccc1C(F)(F)F)C(=O)COC(F)(F)F` [Compound 686, (S)-N-((S)-3-oxo-1-((S)-2-oxopyrrolidin-3-yl)-4-(trifluoromethoxy)butan-2-yl)-5-(2-(trifluoromethyl)benzoyl)-5-azaspiro[2.4]heptane-6-carboxamide], the 50% effective concentration (EC50) was less than 0.05 µM.

In the case of `O=C1NCC[C@H]1C[C@H](NC(=O)[C@@H]1CC2(CC2)CN1C(=O)c1ccc2c(c1)OC(F)(F)O2)C(=O)COC(F)(F)F` [Compound 687, (S)-5-(2,2-difluorobenzo[d][1,3]dioxole-5-carbonyl)-N-((S)-3-oxo-1-((S)-2-oxopyrrolidin-3-yl)-4-(trifluoromethoxy)butan-2-yl)-5-azaspiro[2.4]heptane-6-carboxamide], the concentration giving a half-maximal response (EC50) is less than 0.05 µM.

As for `CCC(=O)N1CC2(CC2)C[C@H]1C(=O)N[C@@H](C[C@@H]1CCNC1=O)C(=O)COC(F)(F)F` [Compound 688, (S)-N-((S)-3-oxo-1-((S)-2-oxopyrrolidin-3-yl)-4-(trifluoromethoxy)butan-2-yl)-5-propionyl-5-azaspiro[2.4]heptane-6-carboxamide], the EC50 fell in the range of 0.05 to 0.2 µM.

For the compound `C=CCC(=O)N1CC2(CC2)C[C@H]1C(=O)N[C@@H](C[C@@H]1CCNC1=O)C(=O)COC(F)(F)F` [Compound 689, (S)-5-(but-3-enoyl)-N-((S)-3-oxo-1-((S)-2-oxopyrrolidin-3-yl)-4-(trifluoromethoxy)butan-2-yl)-5-azaspiro[2.4]heptane-6-carboxamide], the EC50 was in the range of 0.05 to 0.2 µM.

With `C=CCCC(=O)N1CC2(CC2)C[C@H]1C(=O)N[C@@H](C[C@@H]1CCNC1=O)C(=O)COC(F)(F)F` [Compound 690, (S)-N-((S)-3-oxo-1-((S)-2-oxopyrrolidin-3-yl)-4-(trifluoromethoxy)butan-2-yl)-5-(pent-4-enoyl)-5-azaspiro[2.4]heptane-6-carboxamide], the EC50 was in the range of 0.05 to 0.2 µM.

For `CNS(=O)(=O)NCC(=O)N1CC2(CC2)C[C@H]1C(=O)N[C@@H](C[C@@H]1CCNC1=O)C(=O)COC(F)(F)F` [Compound 691, (S)-5-((N-methylsulfamoyl)glycyl)-N-((S)-3-oxo-1-((S)-2-oxopyrrolidin-3-yl)-4-(trifluoromethoxy)butan-2-yl)-5-azaspiro[2.4]heptane-6-carboxamide], the EC50 fell in the range of 0.5 to 1 µM.

With `CN(C)S(=O)(=O)NCC(=O)N1CC2(CC2)C[C@H]1C(=O)N[C@@H](C[C@@H]1CCNC1=O)C(=O)COC(F)(F)F` [Compound 692, (S)-5-((N,N-dimethylsulfamoyl)glycyl)-N-((S)-3-oxo-1-((S)-2-oxopyrrolidin-3-yl)-4-(trifluoromethoxy)butan-2-yl)-5-azaspiro[2.4]heptane-6-carboxamide], the EC50 was 0.2 to 0.5 µM.

As for `CN(C)S(=O)(=O)N(C)CC(=O)N1CC2(CC2)C[C@H]1C(=O)N[C@@H](C[C@@H]1CCNC1=O)C(=O)COC(F)(F)F` [Compound 693, (S)-5-(N-(N,N-dimethylsulfamoyl)-N-methylglycyl)-N-((S)-3-oxo-1-((S)-2-oxopyrrolidin-3-yl)-4-(trifluoromethoxy)butan-2-yl)-5-azaspiro[2.4]heptane-6-carboxamide], the EC50 was in the range of 0.2 to 0.5 µM.

`O=C1NCC[C@H]1C[C@H](NC(=O)[C@@H]1CC2(CC2)CN1C(=O)c1ccccc1)C(=O)COC(F)(F)F` [Compound 694, (S)-5-benzoyl-N-((S)-3-oxo-1-((S)-2-oxopyrrolidin-3-yl)-4-(trifluoromethoxy)butan-2-yl)-5-azaspiro[2.4]heptane-6-carboxamide]: the concentration giving a half-maximal response (EC50) was in the range of 0.05 to 0.2 µM.

For the compound `CC(C)Cn1cc(C(=O)N2CC3(CC3)C[C@H]2C(=O)N[C@@H](C[C@@H]2CCNC2=O)C(=O)COC(F)(F)F)nn1` [Compound 695, (S)-5-(1-isobutyl-1H-1,2,3-triazole-4-carbonyl)-N-((S)-3-oxo-1-((S)-2-oxopyrrolidin-3-yl)-4-(trifluoromethoxy)butan-2-yl)-5-azaspiro[2.4]heptane-6-carboxamide], the EC50 is 0.05 to 0.2 µM.

For the compound `C[C@@H](O)C(=O)N1CC2(CC2)C[C@H]1C(=O)N[C@@H](C[C@@H]1CCNC1=O)C(=O)COC(F)(F)F` [Compound 697, (S)-5-((R)-2-hydroxypropanoyl)-N-((S)-3-oxo-1-((S)-2-oxopyrrolidin-3-yl)-4-(trifluoromethoxy)butan-2-yl)-5-azaspiro[2.4]heptane-6-carboxamide], the EC50 was in the range of 0.05 to 0.2 µM.

Take `O=C1NCC[C@H]1C[C@H](NC(=O)[C@@H]1CC2(CC2)CN1C(=O)CO)C(=O)COC(F)(F)F` [Compound 698, (S)-5-(2-hydroxyacetyl)-N-((S)-3-oxo-1-((S)-2-oxopyrrolidin-3-yl)-4-(trifluoromethoxy)butan-2-yl)-5-azaspiro[2.4]heptane-6-carboxamide]: the concentration for a half-maximal effect (EC50) fell in the range of 0.05 to 0.2 µM.

Take `O=C1NCC[C@H]1C[C@H](NC(=O)[C@@H]1CC2(CC2)CN1C(=O)c1cc(F)cc(F)c1)C(=O)COC(F)(F)F` [Compound 699, (S)-5-(3,5-difluorobenzoyl)-N-((S)-3-oxo-l-((S)-2-oxopyrrolidin-3-yl)-4-(trifluoromethoxy)butan-2-yl)-5-azaspiro[2.4]heptane-6-carboxamide]: the EC50 fell in the range of 0.05 to 0.2 µM.

For `C[C@](O)(C(=O)N1CC2(CC2)C[C@H]1C(=O)N[C@@H](C[C@@H]1CCNC1=O)C(=O)COC(F)(F)F)C(F)(F)F` [Compound 700, (S)-N-((S)-3-oxo-1-((S)-2-oxopyrrolidin-3-yl)-4-(trifluoromethoxy)butan-2-yl)-5-((S)-3,3,3-trifluoro-2-hydroxy-2-methylpropanoyl)-5-azaspiro[2.4]heptane-6-carboxamide], the EC50 is 0.05 to 0.2 µM.

For `O=C1NCC[C@H]1C[C@H](NC(=O)[C@@H]1CC2(CC2)CN1C(=O)CC1CC(F)(F)C1)C(=O)COC(F)(F)F` [Compound 701, (S)-5-(2-(3,3-difluorocyclobutyl)acetyl)-N-((S)-3-oxo-1-((S)-2-oxopyrrolidin-3-yl)-4-(trifluoromethoxy)butan-2-yl)-5-azaspiro[2.4]heptane-6-carboxamide], the EC50 is less than 0.05 µM.

As to `O=C1NCC[C@H]1C[C@H](NC(=O)[C@@H]1CC2(CC2)CN1C(=O)c1ccc(Cl)cc1F)C(=O)COC(F)(F)F` [Compound 702, (S)-5-(4-chloro-2-fluorobenzoyl)-N-((S)-3-oxo-1-((S)-2-oxopyrrolidin-3-yl)-4-(trifluoromethoxy)butan-2-yl)-5-azaspiro[2.4]heptane-6-carboxamide], the EC50 lay in the range of 0.05 to 0.2 µM.

On to `CC(C)C(=O)N1CC2(CC2)C[C@H]1C(=O)N[C@@H](C[C@@H]1CCNC1=O)C(=O)COC(F)(F)F` [Compound 704, (S)-5-isobutyryl-N-((S)-3-oxo-1-((S)-2-oxopyrrolidin-3-yl)-4-(trifluoromethoxy)butan-2-yl)-5-azaspiro[2.4]heptane-6-carboxamide], for which the concentration for a half-maximal effect (EC50) was 0.05 to 0.2 µM.

In the case of `CCCC(=O)N1CC2(CC2)C[C@H]1C(=O)N[C@@H](C[C@@H]1CCNC1=O)C(=O)COC(F)(F)F` [Compound 705, (S)-5-butyryl-N-((S)-3-oxo-1-((S)-2-oxopyrrolidin-3-yl)-4-(trifluoromethoxy)butan-2-yl)-5-azaspiro[2.4]heptane-6-carboxamide], the EC50 is 0.2 to 0.5 µM.

The assay is the same for the next values; noted with them: Severe acute respiratory syndrome coronavirus 2, HeLa-ACE2, 24 h; read-out: EC50, uM (Hela).
As for `O=C1NCC[C@H]1C[C@H](NC(=O)[C@@H]1CC2(CC2)CN1C(=O)C1(NC(=O)C(F)(F)F)CCC(F)(F)CC1)C(=O)COC(F)(F)F` [Compound 680, (S)-5-(4,4-difluoro-1-(2,2,2-trifluoroacetamido)cyclohexane-1-carbonyl)-N-((S)-3-oxo-1-((S)-2-oxopyrrolidin-3-yl)-4-(trifluoromethoxy)butan-2-yl)-5-azaspiro[2.4]heptane-6-carboxamide], the EC50 was 0.2 to 0.5 µM.

With `CC(C)C[C@@H](O)C(=O)N1CCC[C@H]1C(=O)N[C@@H](C[C@@H]1CCNC1=O)C(=O)COC(F)(F)F` [Compound 696, (S)-1-((R)-2-hydroxy-4-methylpentanoyl)-N-((S)-3-oxo-1-((S)-2-oxopyrrolidin-3-yl)-4-(trifluoromethoxy)butan-2-yl)pyrrolidine-2-carboxamide], the 50% effective concentration (EC50) is 0.05 to 0.2 µM.

As for `O=C1NCC[C@H]1C[C@H](NC(=O)[C@@H]1CC2(CC2)CN1C(=O)C(F)(F)F)C(=O)COC(F)(F)F` [Compound 703, (S)-N-((S)-3-oxo-1-((S)-2-oxopyrrolidin-3-yl)-4-(trifluoromethoxy)butan-2-yl)-5-(2,2,2-trifluoroacetyl)-5-azaspiro[2.4]heptane-6-carboxamide], the EC50 was in the range of 0.2 to 0.5 µM.

For the origin of these results see patent US11708348B2, “Protease inhibitors for treatment of coronavirus infections” (The Scripps Research Institute, priority 2021, dated 2023).
